Assay [1] concerns the target T1, Adrenergic β2 (Homo sapiens, UniProt P07550).
T1 construct: endogenous in cells; host or cells: H292 cells
The assay can be described thus: Alternative Adrenergic β2 Mediated cAMP Production in H292 cells (60 minutes incubation with test compound). Format: cell-based. The conditions noted are these: for EC50: rolipram 300 μM, test compounds incubated 60 minutes at room temperature; for Intrinsic Activity: fraction relative to the maximum activity determined for formoterol, 60 minutes incubation. How it is done:
H292 cells were grown in 225 cm2 flasks incubator at 37° C., 5% CO2 in RPMI medium containing, 10% (v/v) FBS (foetal bovine serum) and 2 mM L-glutamine.
Adherent H292 cells were removed from tissue culture flasks by treatment with Accutase™ cell detachment solution for 15 minutes. Flasks were incubated for 15 minutes in a humidified incubator at 37° C., 5% CO2. Detached cells were re-suspended in RPMI media (containing 10% (v/v) FBS and 2 mM L-glutamine) at 0.05×10^6 cells per mL. 5000 cells in 100 μL were added to each well of a tissue-culture-treated 96-well plate and the cells incubated overnight in a humidified incubator at 37° C., 5% CO2. The culture media was removed and cells were washed twice with 100 μL assay buffer and replaced with 50 μL assay buffer (HBSS solution containing 10 mM HEPES pH7.4 and 5 mM glucose). Cells were rested at room temperature for 20 minutes after which time 25 μL of rolipram (1.2 mM made up in assay buffer containing 2.4% (v/v) dimethylsulphoxide) was added. Cells were incubated with rolipram for 10 minutes after which time test compounds were added and the cells were incubated for 60 minutes at room temperature. The final rolipram concentration in the assay was 300 μM and final vehicle concentration was 1.6% (v/v) dimethylsulphoxide. The reaction was stopped by removing supernatants, washing once with 100 μL assay buffer and replacing with 50 μL lysis buffer. The cell monolayer was frozen at −80° C. for 30 minutes (or overnight).
The concentration of cAMP (cyclic adenosine monophosphate) in the cell lysate was determined using AlphaScreen™ methodology. The frozen cell plate was thawed for 20 minutes on a plate shaker then 10 μL of the cell lysate was transferred to a 96-well white plate. 40 μL of mixed AlphaScreen™ detection beads pre-incubated with biotinylated cAMP, was added to each well and the plate incubated at room temperature for 10 hours in the dark. The AlphaScreen™ signal was measured using an EnVision spectrophotometer (Perkin-Elmer Inc.) with the recommended manufacturer's settings. cAMP concentrations were determined by reference to a calibration curve determined in the same experiment using standard cAMP concentrations. Concentration response curves for agonists were constructed and data was fitted to a four parameter logistic equation to determine both the pEC50 and Intrinsic Activity. Intrinsic Activity was expressed as a fraction relative to the maximum activity determined for formoterol in each experiment.

Assay [2] deals with T1, Adrenergic β2. The assay can be described thus: cAMP production in H292 cells, AlphaScreen cAMP detection (10 minutes incubation with test compound). It is filed as cell-based. The conditions noted are these: for Intrinsic Activity: fraction relative to the maximum activity determined for formoterol, 10 minutes incubation; for EC50: rolipram 300 μM, test compounds incubated 10 minutes at room temperature. How it is done: H292 cells were grown in RPMI (Roswell Park Memorial Institute) medium containing, 10% (v/v) FBS (foetal bovine serum) and 2 mM L-glutamine. Cells were grown in 225 cm2 flasks containing 25 mL media in a humidified incubator at 37° C., 5% CO2. Cells were harvested from the flask and passaged at a 1 in 10 dilution once per week.
The media from flasks containing H292 cells was removed, rinsed with 10 mL PBS (phosphate buffered saline) and replaced with 10 mL Accutase™ cell detachment solution. Flasks were incubated for 15 minutes in a humidified incubator at 37° C., 5% CO2. The cell suspension was counted and the cells re-suspended in RPMI media (containing 10% (v/v) FBS and 2 mM L-glutamine) at 0.05×10^6 cells per mL. 5000 cells in 100 μL were added to each well of a tissue-culture-treated 96-well plate and the cells incubated overnight in a humidified incubator at 37° C., 5% CO2. The culture media was removed, washed twice with 100 μL assay buffer and replaced with 50 μL assay buffer. Cells were rested at room temperature for 20 minutes after which time 25 μL of rolipram (1.2 mM made up in assay buffer containing 2.4% (v/v) dimethylsulphoxide) was added. Cells were incubated with rolipram for 10 minutes after which time test compounds (made up as ×4 concentrated stocks in assay buffer containing 4% (v/v) dimethylsulphoxide) were added and the cells were incubated for 10 minutes at room temperature. Final rolipram concentration in the assay was 300 μM and final vehicle concentration was 1.6% (v/v) dimethylsulphoxide. The reaction was stopped by removing supernatants, washing once with 100 μL assay buffer and replacing with 50 μL lysis buffer. The cell monolayer was frozen at −80° C. for 30 minutes (or overnight).
The concentration of cAMP (cyclic adenosine monophosphate) in the cell lysate was determined using the AlphaScreen™ methodology. The frozen cell plate was thawed for 20 minutes on a plate shaker then 10 μL of the cell lysate was transferred to a 96-well white plate. 40 μL of mixed AlphaScreen™ detection beads (containing equal volumes of donor beads (pre-incubated with biotinylated cAMP in the dark for 30 minutes) and acceptor beads), was added to each well and the plate incubated at room temperature for 10 hours in the dark. The AlphaScreen™ signal was measured using an EnVision spectrophotometer (Perkin-Elmer Inc.) with the recommended manufacturer's settings. cAMP concentrations were determined by reference to a calibration curve determined in the same experiment using standard cAMP concentrations (made up in lysis buffer in a 96-well tissue-culture-treated plate and frozen/thawed alongside the test samples) and detected using the same protocol. Concentration response curves for agonists were constructed to determine both the pEC50 and Intrinsic Activity. Intrinsic Activity was expressed as a fraction relative to the maximum activity determined for formoterol in each experiment.
A general note: Changes in cAMP serve as a functional read-out for many G protein-coupled receptors.

Where a name gives a salt, the structure may show the parent alone.

T1 sequence (P07550 whole entry): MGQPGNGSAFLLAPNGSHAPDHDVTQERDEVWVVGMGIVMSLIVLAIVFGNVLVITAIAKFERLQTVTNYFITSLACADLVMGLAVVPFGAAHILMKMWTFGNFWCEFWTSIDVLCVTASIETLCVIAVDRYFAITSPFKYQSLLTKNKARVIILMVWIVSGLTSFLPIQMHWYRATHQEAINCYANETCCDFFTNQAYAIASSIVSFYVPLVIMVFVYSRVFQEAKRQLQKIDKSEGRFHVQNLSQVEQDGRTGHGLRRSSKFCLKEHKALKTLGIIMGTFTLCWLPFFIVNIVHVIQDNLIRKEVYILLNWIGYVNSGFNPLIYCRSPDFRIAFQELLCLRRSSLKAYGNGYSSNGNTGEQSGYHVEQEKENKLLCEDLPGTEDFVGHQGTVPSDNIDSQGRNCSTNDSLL

One may read the EC50 as the midpoint of the concentration-response curve. Low readings indicate a more potent agent, high ones a less potent agent. In assay [1], `O=C(CCN1CCC(NC[C@H](O)c2ccc(O)c3[nH]c(=O)ccc23)CC1)NCc1cccc(Cl)c1Cl` [Example 36, N-(2,3-Dichlorobenzyl)-3-(4-{[(2R)-2-hydroxy-2-(8-hydroxy-2-oxo-1,2-dihydroquinolin-5-yl)ethyl]amino}piperidin-1-yl)propanamide] showed an EC50 of 3.16 nM. In the case of `O=C(CCN1CCC(NC[C@H](O)c2ccc(O)c3[nH]c(=O)ccc23)CC1)NCc1ccccc1` [Example 6, N-Benzyl-3-(4-{[(2R)-2-hydroxy-2-(8-hydroxy-2-oxo-1,2-dihydroquinolin-5-yl)ethyl]amino}piperidin-1-yl)propanamide], in assay [2], the “Intrinsic Activity” value turned out to be 0.8 and the EC50 was 7.94 nM.

For `O=c1ccc2c([C@@H](O)CNC3CCN(CCCOCCc4ccccc4)CC3)ccc(O)c2[nH]1` [Example 3, 8-Hydroxy-5-[(1R)-1-hydroxy-2-({1-[3-(2-phenylethoxy)propyl]piperidin-4-yl}amino)ethyl]quinolin-2(1H)-one], in assay [2], the “Intrinsic Activity” value is recorded as 0.8 and the EC50 is 31.6 nM. Turning to `O=c1[nH]c2c(O)ccc([C@@H](O)CNCC3CN(CCCOCCc4ccccc4)C3)c2s1` [Example 20, 4-Hydroxy-7-{(1R)-1-hydroxy-2-[({1-[3-(2-phenylethoxy)propyl]azetidin-3-yl}methyl)amino]ethyl}-1,3-benzothiazol-2(3H)-one hydrochloride], in assay [1], the “Intrinsic Activity” value is given as 1 and the EC50 was 0.316 nM.

For the compound `O=c1ccc2c([C@@H](O)CNC[C@H]3CCCN(CCOCCc4ccccc4)C3)ccc(O)c2[nH]1` [Example 14, 8-Hydroxy-5-{(1R)-1-hydroxy-2-[({(3R)-1-[2-(2-phenylethoxy)ethyl]piperidin-3-yl}methyl)amino]ethyl}quinolin-2(1H)-one], in assay [2], the “Intrinsic Activity” value stood at 1.0 and the EC50 was 5.01 nM.

On to `O=c1ccc2c([C@@H](O)CNCC3(O)CCN(CCOCCc4ccccc4)CC3)ccc(O)c2[nH]1` [Example 5, 8-Hydroxy-5-{(1R)-1-hydroxy-2-[({4-hydroxy-1-[2-(2-phenylethoxy)ethyl]piperidin-4-yl}methyl)amino]ethyl}quinolin-2(1H)-one], for which, in assay [2], the “Intrinsic Activity” value worked out at 0.8 and a half-maximal response (EC50) required 2.51 nM. The matching figures for `O=c1ccc2c([C@@H](O)CN[C@H]3CC[C@H](NCCOCCc4ccccc4)CC3)ccc(O)c2[nH]1` [Example 2, 8-Hydroxy-5-{(1R)-1-hydroxy-2-[(trans-4-{[2-(2-phenylethoxy)ethyl]amino}cyclohexyl)amino]ethyl}quinolin-2(1H)-one]: 0.9 and 20 nM.

Regarding `O=c1ccc2c([C@@H](O)CNCC3(O)CCN(CCOCCc4cccc5c4CCCC5)CC3)ccc(O)c2[nH]1` [Example 74, 8-Hydroxy-5-{(2R)-1-hydroxy-2-[(4-hydroxy-1-{2-[2-(5,6,7,8-tetrahydronaphthalen-1-yl)ethoxy]ethyl}piperidin-4-ylmethyl)amino]ethyl}-1H-quinolin-2-one], in assay [1], the “Intrinsic Activity” value turned out to be 0.9 and the EC50 was 0.794 nM. On to `O=C(CCN1CCC(NC[C@H](O)c2ccc(O)c3[nH]c(=O)ccc23)CC1)NC12CC3CC(CC(C3)C1)C2` [Example 41, N-1-Adamantyl-3-(4-{[(2R)-2-hydroxy-2-(8-hydroxy-2-oxo-1,2-dihydroquinolin-5-yl)ethyl]amino}piperidin-1-yl)propanamide], for which, in assay [1], the “Intrinsic Activity” value turned out to be 0.8 and the EC50 was 3.98 nM. In the case of `Cc1cccc(Cl)c1CNC(=O)CCN1CCC(NC[C@H](O)c2ccc(O)c3[nH]c(=O)ccc23)CC1` [Example 31, N-(2-Chloro-6-methylbenzyl)-3-(4-{[(2R)-2-hydroxy-2-(8-hydroxy-2-oxo-1,2-dihydroquinolin-5-yl)ethyl]amino}piperidin-1-yl)propanamide], in assay [1], the “Intrinsic Activity” value was 0.8 and a half-maximal response (EC50) required 5.01 nM.

The record behind these values is US20090029958A1, “PHENETHANOLAMINE DERIVATIVES AS BETA2 ADRENORECEPTOR AGONISTS” (priority 2006, published 2009).
